# Laboratory results taken from article PMC6409085, “Three odorant-binding proteins are involved in the behavioral response of Sogatella furcifera to rice plant volatiles” (PeerJ, 2019).
# “And” between values parts separate entries of the source, which are not always exact repeats. Equal entries are not always repeated.
# Legend:
# SfurOBP3 = SfurOBP3 (Sogatella furcifera, UniProt V5T818); assay: biochemical; type: binding; settings: for Fluorescence competitive binding assay, fluorescence intensity: OBP3, three replicate columns
# In short: (§1)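 K1-NPN came from titrating 2.0 µM protein (50 mM Tris-HCl, pH 7.4) with 1-NPN. Odorants at 2-20 µM then competed against 2.0 µM protein plus 2.0 µM 1-NPN for 2 min, with excitation at 337 nm and emission recorded over 390-490 nm. IC50 values were converted to Ki via Ki = IC50/(1 + [1-NPN]/K1-NPN).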
# SfurOBP1 = SfurOBP1 (Sogatella furcifera, UniProt V5T8N5); assay: biochemical; type: binding; settings: for Fluorescence competitive binding assay, fluorescence intensity: OBP1, three replicate columns
# In short: as §1
# SfurOBP11 = SfurOBP11 (Sogatella furcifera, UniProt V5T6E3); assay: biochemical; type: binding
# In short: as §1
# SfurOBP2 = SfurOBP2 (Sogatella furcifera, UniProt V5T759); assay: biochemical; type: binding
# In short: as §1
# S. furcifera adults = assay: Y-tube olfactometer behavioral trials; type: in vivo, Sogatella furcifera; settings: odorant 50 µL/L vs hexane; adults
# In short: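 Single S. furcifera adults (2 days post-emergence, starved 0.5 h) chose between odorant (100 µL of 50 µL/L on filter paper) and hexane control in a glass Y-tube, charcoal-filtered humidified air 300 mL/min per arm, 25 ± 1 °C, 50% RH. Choice scored if insect passed half an arm and stayed >1 min within 10 min; 45 insects per compound, chi-squared test.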
# Sequence of SfurOBP1 (V5T8N5 entry or part of it): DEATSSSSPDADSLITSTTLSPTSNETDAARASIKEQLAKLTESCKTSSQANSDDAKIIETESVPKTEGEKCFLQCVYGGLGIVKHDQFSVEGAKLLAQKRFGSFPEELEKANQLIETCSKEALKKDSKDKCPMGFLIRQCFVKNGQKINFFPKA
# Sequence of SfurOBP2 (V5T759 entry or part of it): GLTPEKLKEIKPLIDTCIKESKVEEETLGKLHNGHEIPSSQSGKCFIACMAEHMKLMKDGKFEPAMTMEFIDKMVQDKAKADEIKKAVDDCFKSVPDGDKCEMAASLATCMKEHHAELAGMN
# Sequence of SfurOBP11 (V5T6E3 entry or part of it): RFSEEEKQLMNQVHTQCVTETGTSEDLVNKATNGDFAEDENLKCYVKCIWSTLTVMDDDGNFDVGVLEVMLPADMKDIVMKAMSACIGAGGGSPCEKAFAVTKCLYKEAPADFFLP
# Sequence of SfurOBP3 (V5T818 entry or part of it): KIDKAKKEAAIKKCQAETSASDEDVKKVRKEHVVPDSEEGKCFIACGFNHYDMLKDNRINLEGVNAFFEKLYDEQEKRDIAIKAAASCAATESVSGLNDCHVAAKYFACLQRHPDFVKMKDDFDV
smiles,measurement,setting,value
CC1=CC[C@@H](C(C)(C)O)CC1 [α-terpineol],IC50,SfurOBP3,13.6 µM
same,"Fluorescence competitive binding assay, fluorescence intensity",SfurOBP3; ligand concentration 2,41927 and 42538 and 43146
same,"Fluorescence competitive binding assay, fluorescence intensity",SfurOBP3; ligand concentration 4,40833 and 40011 and 41655
same,"Fluorescence competitive binding assay, fluorescence intensity",SfurOBP3; ligand concentration 6,42160 and 41392 and 42949
same,"Fluorescence competitive binding assay, fluorescence intensity",SfurOBP3; ligand concentration 8,37611 and 37369 and 39854
same,"Fluorescence competitive binding assay, fluorescence intensity",SfurOBP3; ligand concentration 10,32220 and 32701 and 33181
same,"Fluorescence competitive binding assay, fluorescence intensity",SfurOBP3; ligand concentration 12,30392 and 29567 and 30934
same,"Fluorescence competitive binding assay, fluorescence intensity",SfurOBP3; ligand concentration 14,29784 and 30310 and 29247
same,"Fluorescence competitive binding assay, fluorescence intensity",SfurOBP3; ligand concentration 16,24410 and 25726 and 27469
same,"Fluorescence competitive binding assay, fluorescence intensity",SfurOBP3; ligand concentration 18,26293 and 25033 and 26983
same,"Fluorescence competitive binding assay, fluorescence intensity",SfurOBP3; ligand concentration 20,28495 and 26490 and 25496
same,binding affinity to SfurOBP3 (in words),SfurOBP3; SfurOBP3,high binding affinities
same,IC50,SfurOBP1,> 20 µM
same,"Fluorescence competitive binding assay, fluorescence intensity",SfurOBP1; ligand concentration 2 (μM),6377 and 6063 and 6691
same,"Fluorescence competitive binding assay, fluorescence intensity",SfurOBP1; ligand concentration 4 (μM),7679 and 7170 and 7304
same,"Fluorescence competitive binding assay, fluorescence intensity",SfurOBP1; ligand concentration 6 (μM),7149 and 7127 and 7171
same,"Fluorescence competitive binding assay, fluorescence intensity",SfurOBP1; ligand concentration 8 (μM),6956 and 7151 and 7930
same,"Fluorescence competitive binding assay, fluorescence intensity",SfurOBP1; ligand concentration 10 (μM),8380 and 7109 and 7555
same,"Fluorescence competitive binding assay, fluorescence intensity",SfurOBP1; ligand concentration 12 (μM),7012 and 7971 and 7255
same,"Fluorescence competitive binding assay, fluorescence intensity",SfurOBP1; ligand concentration 14 (μM),6581 and 7020 and 7628
same,"Fluorescence competitive binding assay, fluorescence intensity",SfurOBP1; ligand concentration 16 (μM),6623 and 7749 and 6480
same,"Fluorescence competitive binding assay, fluorescence intensity",SfurOBP1; ligand concentration 18 (μM),7107 and 7324 and 6847
same,"Fluorescence competitive binding assay, fluorescence intensity",SfurOBP1; ligand concentration 20 (μM),6572 and 7380 and 8412
same,IC50,SfurOBP11,> 20 µM
same,"Fluorescence intensity, fluorescence competitive binding assay, OBP11","SfurOBP11; ligand concentration 2, replicate 1",29252
same,"Fluorescence intensity, fluorescence competitive binding assay, OBP11","SfurOBP11; ligand concentration 2, replicate 2",30685
same,"Fluorescence intensity, fluorescence competitive binding assay, OBP11","SfurOBP11; ligand concentration 2, replicate 3",32118
same,"Fluorescence intensity, fluorescence competitive binding assay, OBP11","SfurOBP11; ligand concentration 4, replicate 1",28869
same,"Fluorescence intensity, fluorescence competitive binding assay, OBP11","SfurOBP11; ligand concentration 4, replicate 2",31369
same,"Fluorescence intensity, fluorescence competitive binding assay, OBP11","SfurOBP11; ligand concentration 4, replicate 3",30942
same,"Fluorescence intensity, fluorescence competitive binding assay, OBP11","SfurOBP11; ligand concentration 6, replicate 1",28105
same,"Fluorescence intensity, fluorescence competitive binding assay, OBP11","SfurOBP11; ligand concentration 6, replicate 2",27021
same,"Fluorescence intensity, fluorescence competitive binding assay, OBP11","SfurOBP11; ligand concentration 6, replicate 3",30576
same,"Fluorescence intensity, fluorescence competitive binding assay, OBP11","SfurOBP11; ligand concentration 8, replicate 1",25898
same,"Fluorescence intensity, fluorescence competitive binding assay, OBP11","SfurOBP11; ligand concentration 8, replicate 2",26158
same,"Fluorescence intensity, fluorescence competitive binding assay, OBP11","SfurOBP11; ligand concentration 8, replicate 3",28412
same,"Fluorescence intensity, fluorescence competitive binding assay, OBP11","SfurOBP11; ligand concentration 10, replicate 1",27115
same,"Fluorescence intensity, fluorescence competitive binding assay, OBP11","SfurOBP11; ligand concentration 10, replicate 2",24221
same,"Fluorescence intensity, fluorescence competitive binding assay, OBP11","SfurOBP11; ligand concentration 10, replicate 3",26039
same,"Fluorescence intensity, fluorescence competitive binding assay, OBP11","SfurOBP11; ligand concentration 12, replicate 1",23153
same,"Fluorescence intensity, fluorescence competitive binding assay, OBP11","SfurOBP11; ligand concentration 12, replicate 2",22497
same,"Fluorescence intensity, fluorescence competitive binding assay, OBP11","SfurOBP11; ligand concentration 12, replicate 3",22406
same,"Fluorescence intensity, fluorescence competitive binding assay, OBP11","SfurOBP11; ligand concentration 14, replicate 1",22371
same,"Fluorescence intensity, fluorescence competitive binding assay, OBP11","SfurOBP11; ligand concentration 14, replicate 2",22254
same,"Fluorescence intensity, fluorescence competitive binding assay, OBP11","SfurOBP11; ligand concentration 14, replicate 3",22487
same,"Fluorescence intensity, fluorescence competitive binding assay, OBP11","SfurOBP11; ligand concentration 16, replicate 1",19119
same,"Fluorescence intensity, fluorescence competitive binding assay, OBP11","SfurOBP11; ligand concentration 16, replicate 2",17607
same,"Fluorescence intensity, fluorescence competitive binding assay, OBP11","SfurOBP11; ligand concentration 16, replicate 3",18419
same,"Fluorescence intensity, fluorescence competitive binding assay, OBP11","SfurOBP11; ligand concentration 18, replicate 1",25701
same,"Fluorescence intensity, fluorescence competitive binding assay, OBP11","SfurOBP11; ligand concentration 18, replicate 2",25030
same,"Fluorescence intensity, fluorescence competitive binding assay, OBP11","SfurOBP11; ligand concentration 18, replicate 3",24854
same,"Fluorescence intensity, fluorescence competitive binding assay, OBP11","SfurOBP11; ligand concentration 20, replicate 1",25268
same,"Fluorescence intensity, fluorescence competitive binding assay, OBP11","SfurOBP11; ligand concentration 20, replicate 2",25350
same,"Fluorescence intensity, fluorescence competitive binding assay, OBP11","SfurOBP11; ligand concentration 20, replicate 3",25312
same,IC50,SfurOBP2,> 20 µM
same,"Fluorescence competitive binding assay, OBP2 (raw fluorescence reading)","SfurOBP2; ligand concentration 2 (unit not given), replicate column 1 of 3",18212
same,"Fluorescence competitive binding assay, OBP2 (raw fluorescence reading)","SfurOBP2; ligand concentration 2 (unit not given), replicate column 2 of 3",17771
same,"Fluorescence competitive binding assay, OBP2 (raw fluorescence reading)","SfurOBP2; ligand concentration 2 (unit not given), replicate column 3 of 3",19569
same,"Fluorescence competitive binding assay, OBP2 (raw fluorescence reading)","SfurOBP2; ligand concentration 4 (unit not given), replicate column 1 of 3",20390
same,"Fluorescence competitive binding assay, OBP2 (raw fluorescence reading)","SfurOBP2; ligand concentration 4 (unit not given), replicate column 2 of 3",18924
same,"Fluorescence competitive binding assay, OBP2 (raw fluorescence reading)","SfurOBP2; ligand concentration 4 (unit not given), replicate column 3 of 3",19735
same,"Fluorescence competitive binding assay, OBP2 (raw fluorescence reading)","SfurOBP2; ligand concentration 6 (unit not given), replicate column 1 of 3",19485
same,"Fluorescence competitive binding assay, OBP2 (raw fluorescence reading)","SfurOBP2; ligand concentration 6 (unit not given), replicate column 2 of 3",20387
same,"Fluorescence competitive binding assay, OBP2 (raw fluorescence reading)","SfurOBP2; ligand concentration 6 (unit not given), replicate column 3 of 3",20572
same,"Fluorescence competitive binding assay, OBP2 (raw fluorescence reading)","SfurOBP2; ligand concentration 8 (unit not given), replicate column 1 of 3",16903
same,"Fluorescence competitive binding assay, OBP2 (raw fluorescence reading)","SfurOBP2; ligand concentration 8 (unit not given), replicate column 2 of 3",17555
same,"Fluorescence competitive binding assay, OBP2 (raw fluorescence reading)","SfurOBP2; ligand concentration 8 (unit not given), replicate column 3 of 3",17959
same,"Fluorescence competitive binding assay, OBP2 (raw fluorescence reading)","SfurOBP2; ligand concentration 10 (unit not given), replicate column 1 of 3",16415
same,"Fluorescence competitive binding assay, OBP2 (raw fluorescence reading)","SfurOBP2; ligand concentration 10 (unit not given), replicate column 2 of 3",15491
same,"Fluorescence competitive binding assay, OBP2 (raw fluorescence reading)","SfurOBP2; ligand concentration 10 (unit not given), replicate column 3 of 3",17367
same,"Fluorescence competitive binding assay, OBP2 (raw fluorescence reading)","SfurOBP2; ligand concentration 12 (unit not given), replicate column 1 of 3",14309
same,"Fluorescence competitive binding assay, OBP2 (raw fluorescence reading)","SfurOBP2; ligand concentration 12 (unit not given), replicate column 2 of 3",15826
same,"Fluorescence competitive binding assay, OBP2 (raw fluorescence reading)","SfurOBP2; ligand concentration 12 (unit not given), replicate column 3 of 3",15705
same,"Fluorescence competitive binding assay, OBP2 (raw fluorescence reading)","SfurOBP2; ligand concentration 14 (unit not given), replicate column 1 of 3",15282
same,"Fluorescence competitive binding assay, OBP2 (raw fluorescence reading)","SfurOBP2; ligand concentration 14 (unit not given), replicate column 2 of 3",15181
same,"Fluorescence competitive binding assay, OBP2 (raw fluorescence reading)","SfurOBP2; ligand concentration 14 (unit not given), replicate column 3 of 3",14363
same,"Fluorescence competitive binding assay, OBP2 (raw fluorescence reading)","SfurOBP2; ligand concentration 16 (unit not given), replicate column 1 of 3",13073
same,"Fluorescence competitive binding assay, OBP2 (raw fluorescence reading)","SfurOBP2; ligand concentration 16 (unit not given), replicate column 2 of 3",13018
same,"Fluorescence competitive binding assay, OBP2 (raw fluorescence reading)","SfurOBP2; ligand concentration 16 (unit not given), replicate column 3 of 3",13539
same,"Fluorescence competitive binding assay, OBP2 (raw fluorescence reading)","SfurOBP2; ligand concentration 18 (unit not given), replicate column 1 of 3",15519
same,"Fluorescence competitive binding assay, OBP2 (raw fluorescence reading)","SfurOBP2; ligand concentration 18 (unit not given), replicate column 2 of 3",15960
same,"Fluorescence competitive binding assay, OBP2 (raw fluorescence reading)","SfurOBP2; ligand concentration 18 (unit not given), replicate column 3 of 3",15297
same,"Fluorescence competitive binding assay, OBP2 (raw fluorescence reading)","SfurOBP2; ligand concentration 20 (unit not given), replicate column 1 of 3",14913
same,"Fluorescence competitive binding assay, OBP2 (raw fluorescence reading)","SfurOBP2; ligand concentration 20 (unit not given), replicate column 2 of 3",14580
same,"Fluorescence competitive binding assay, OBP2 (raw fluorescence reading)","SfurOBP2; ligand concentration 20 (unit not given), replicate column 3 of 3",12894
same,number of insects choosing hexane arm,S. furcifera adults,14
same,number of insects choosing volatilies arm,S. furcifera adults,11
same,number of insects failed (no choice),S. furcifera adults,15
